Source: patent publication US8940302B2, “Predicting response to a HER inhibitor” (Genentech, Inc., priority 2007, dated 2015)

How the values were obtained:
[1] = test system: platinum-resistant ovarian cancer, primary peritoneal carcinoma, or fallopian tube carcinoma; test: Randomized trial of gemcitabine + pertuzumab vs gemcitabine + placebo, PFS and OS by qRT-PCR HER3 (Examples 1 and 4); type: in vivo, human
From the text: Patients who had progressed while receiving, or within 6 months of receiving, a platinum-based chemotherapy regimen were eligible for this study. Patients were randomized to receive either gemcitabine in combination with pertuzumab, or gemcitabine in combination with placebo. Patients treated herein included those who had not received a previous salvage regimen treatment for platinum-resistant disease prior to study entry, and those who had received one prior regimen for platinum-resistant disease. Gemcitabine was administered at 1000 mg/m^2 on days 1 and 8 of each 21 day cycle. Gemcitabine was infused first over 30 minutes. Dose reductions were permitted for toxicity. […] Subjects without progressive disease received treatment for up to 17 cycles, or 1 year. Patients had standard gemcitabine dose reduction and held doses as a result of cytopenias. […] Subsequent doses were at the reduced doses and were not increased. If dose reduction or holding a dose was required in more than 4 occasions, or if doses were held for more than 3 weeks, then gemcitabine was discontinued and with the approval of the treating physician and medical monitor, blinded drug was continued until disease progression. If Day 8 gemcitabine doses were held, then the Day 8 dose was omitted and the subsequent treatment was commenced with the next cycle (Day 22 of the previous cycle). Response was assessed at the end of Cycles 2, 4, 6, 8, 12 and 17. Measurable disease was assessed using the Response Evaluation Criteria for Solid Tumors (RECIST), by clinical evaluation and CT scan or equivalent. Response for subjects with evaluable disease was assessed according to changes to CA-125 and clinical and radiologic evidence of disease. Responses were confirmed 4-8 weeks after the initial documentation of response. The following outcome measures were assessed. Progression free survival, as determined by investigator assessment using RECIST or CA-125 changes, following initiation of assigned study treatment of all subjects in each arm. Formalin-fixed, paraffin embedded tissue (FFPET) samples obtained from the patients in this clinical trial were analyzed for EGFR, HER2, HER3, two HER ligands (amphiregulin and betacellulin), and G6PDH (a housekeeping gene) by qRT-PCR. The qRT-PCR assay was performed by TARGOS Molecular Pathology GmbH (Kassel, Germany) using Roche Diagnostic's lab lot kits. The workflow and analysis for performing the qRT-PCR assay on the clinical samples are depicted in FIGS. 27 and 28 herein. The efficacy results were assessed at 7.1 months median follow-up (range 1.3-20.3). There were 101 progression free survival (PFS) events at that time. […] P-values were estimated using stratified Cox model and stratified log-rank test by randomization stratification factors (ECOG PS, number of prior regimens for platinum resistant disease, and disease measurability). Patients with CDDP-R EOC were randomized to G+P or G+placebo. Treatment was given until progression or until unacceptable toxicity. The primary endpoint was PFS. A secondary objective was to evaluate efficacy outcomes in patients with HER2 activation-related expression profiles. A qRT-PCR assay using archival formalin-fixed paraffin-embedded tissue (FFPET), preformed as described above, allowed mRNA expression analysis of HER pathway genes, including HER1, HER2, HER3, amphiregulin, and betacellulin. Outcomes were described by low gene expression (<median) and by high gene expression (≧median).

[2] = in vivo; cited from earlier work
[3] = test system: advanced, refractory, or recurrent ovarian cancer; test: Single arm phase II trial of single agent pertuzumab, PFS and OS by HER3 qRT-PCR (Example 2); type: in vivo, human; details: for median survival: single agent pertuzumab, FIG. 25
Method: This example concerns a single arm, open label, multicenter phase II clinical trial of ovarian cancer patients. […] Tumor assessments were obtained after 2, 4, 6, 8, 12 and 16 cycles. Response Rate (RR) by RECIST was the primary endpoint. Safety and tolerability were additionally evaluated. Secondary endpoints were TTP, duration of response, duration of survival, pharmacokinetics (PK), and FOSI (cohort 2). qRT-PCR assays were performed on archived formalin fixed paraffin embedded tissue. Assay data is available for 46/117 patients. Here high HER3 expressors were in the greater than and equal to 75th percentile, while low HER3 expressors were in the less than 75th percentile.

[4] = test system: incurable, locally advanced, recurrent or metastatic solid tumors; details: cited from earlier work
[5] = test system: platinum-sensitive recurrent ovarian cancer; test: Randomized open-label Phase II study of pertuzumab with carboplatin-based standard chemotherapy (Example 3); type: in vivo, human; details: FIGS. 32-35
From the text: In this randomized, open-label Phase II clinical study, the efficacy and safety of pertuzumab treatment in combination with carboplatin-based standard chemotherapy was investigated in patients with platinum-sensitive recurrent ovarian cancer. The target sample size is 100-500 individuals. Target sample size is 148. Inclusion Criteria: • histologically confirmed ovarian, primary peritoneal, or fallopian tube cancer; • only 1 previous regimen, which must be platinum-based; • platinum-sensitive disease which is defined by a progression-free interval of greater than 6 months after completion of platinum-based chemotherapy. Exclusion Criteria: • previous radiotherapy; • previous treatment with an anti-cancer vaccine or any targeted therapy; • major surgery or traumatic injury within 4 weeks of study; • history or evidence of central nervous system metastases.

## Cl.Nc1ccn([C@@H]2O[C@H](CO)[C@@H](O)C2(F)F)c(=O)n1 (single isomer, unassigned) [G + Placebo, 2′-deoxy-2′,2′-difluorocytidine monohydrochloride (b-isomer)]
[1]; All Patients (n = 130)
  OS (median months): 13.1 months
  PFS (median months): 2.6 months
[1]; High HER3 (N = 61), ≧median
  OS (median months): 18.2 months
  PFS (median months): 5.5 months
[1]; Low HER3 (N = 61), <median
  OS (median months): 8.4 months
  PFS (median months): 1.4 months

## pertuzumab: humanized HER2 antibody, HER dimerization inhibitor, comprising light and heavy chain amino acid sequences in SEQ ID NOS. 13 and 14
[2]
  mean clearance: 2.69 to 3.74 mL/day/kg
  mean terminal elimination half-life: 15.3 to 27.6 days
[3]; high HER3 expressing patients (greater than and equal to 75th percentile)
  median survival: 1.80 years
[3]; low HER3 expressing patients (less than 75th percentile)
  median survival: 3.31 years
[3]; patients with low HER3 expression vs high
  outcomes in terms of PFS and OS by HER3 expression: better outcomes in terms of PFS and OS
[4]; in vivo, iv
  tolerability: generally well tolerated
[4]; patients evaluable for response, pertuzumab IV every 3 weeks
  Tumor regression: 3 of 20
[4]; pertuzumab IV every 3 weeks
  confirmed partial responses: Two
[1]; qRT-PCR HER3 cutoffs, FIGS. 14-15
  pertuzumab activity (PFS) by HER3 expression: greatest in patients with HER3 low expressing tumors
[5]
  pertuzumab activity (PFS) by HER2:HER3 expression: greatest in patients with high HER2:HER3 expressing cancer
  pertuzumab activity (PFS) by HER3 expression: greatest in patients with HER3 low expressing cancer
